Calls of active or inactive are those of the source. The rule behind the calls is not given here.

Experiment [1] has as its target T1, Endoplasmic reticulum mannosyl-oligosaccharide 1,2-alpha-mannosidase (Homo sapiens, UniProt Q9UKM7).
T1 sequence (Q9UKM7 whole entry): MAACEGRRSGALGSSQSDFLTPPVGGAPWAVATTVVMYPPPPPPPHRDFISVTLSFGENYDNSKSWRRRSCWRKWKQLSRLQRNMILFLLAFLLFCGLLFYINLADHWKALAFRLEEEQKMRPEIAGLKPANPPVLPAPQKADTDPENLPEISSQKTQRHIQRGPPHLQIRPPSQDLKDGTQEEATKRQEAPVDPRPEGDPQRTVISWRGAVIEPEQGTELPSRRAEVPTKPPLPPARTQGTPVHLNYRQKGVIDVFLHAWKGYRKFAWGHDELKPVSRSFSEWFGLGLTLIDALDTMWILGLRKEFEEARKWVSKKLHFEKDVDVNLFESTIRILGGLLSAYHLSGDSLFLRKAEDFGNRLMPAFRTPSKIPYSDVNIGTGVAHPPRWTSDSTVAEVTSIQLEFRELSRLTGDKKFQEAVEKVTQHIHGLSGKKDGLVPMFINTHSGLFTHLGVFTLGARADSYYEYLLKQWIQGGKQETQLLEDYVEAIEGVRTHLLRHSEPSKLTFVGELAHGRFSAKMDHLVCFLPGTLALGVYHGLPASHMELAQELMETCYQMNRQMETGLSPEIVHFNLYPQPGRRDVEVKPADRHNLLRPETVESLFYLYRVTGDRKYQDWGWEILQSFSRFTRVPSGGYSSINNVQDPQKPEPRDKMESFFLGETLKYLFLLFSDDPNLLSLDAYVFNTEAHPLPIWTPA
Put plainly: Inhibition of human ER alpha mannosidase 1.

Another experiment has as its target T2, Alpha-mannosidase 2 (Homo sapiens, UniProt Q16706).
T2 sequence (Q16706 whole entry): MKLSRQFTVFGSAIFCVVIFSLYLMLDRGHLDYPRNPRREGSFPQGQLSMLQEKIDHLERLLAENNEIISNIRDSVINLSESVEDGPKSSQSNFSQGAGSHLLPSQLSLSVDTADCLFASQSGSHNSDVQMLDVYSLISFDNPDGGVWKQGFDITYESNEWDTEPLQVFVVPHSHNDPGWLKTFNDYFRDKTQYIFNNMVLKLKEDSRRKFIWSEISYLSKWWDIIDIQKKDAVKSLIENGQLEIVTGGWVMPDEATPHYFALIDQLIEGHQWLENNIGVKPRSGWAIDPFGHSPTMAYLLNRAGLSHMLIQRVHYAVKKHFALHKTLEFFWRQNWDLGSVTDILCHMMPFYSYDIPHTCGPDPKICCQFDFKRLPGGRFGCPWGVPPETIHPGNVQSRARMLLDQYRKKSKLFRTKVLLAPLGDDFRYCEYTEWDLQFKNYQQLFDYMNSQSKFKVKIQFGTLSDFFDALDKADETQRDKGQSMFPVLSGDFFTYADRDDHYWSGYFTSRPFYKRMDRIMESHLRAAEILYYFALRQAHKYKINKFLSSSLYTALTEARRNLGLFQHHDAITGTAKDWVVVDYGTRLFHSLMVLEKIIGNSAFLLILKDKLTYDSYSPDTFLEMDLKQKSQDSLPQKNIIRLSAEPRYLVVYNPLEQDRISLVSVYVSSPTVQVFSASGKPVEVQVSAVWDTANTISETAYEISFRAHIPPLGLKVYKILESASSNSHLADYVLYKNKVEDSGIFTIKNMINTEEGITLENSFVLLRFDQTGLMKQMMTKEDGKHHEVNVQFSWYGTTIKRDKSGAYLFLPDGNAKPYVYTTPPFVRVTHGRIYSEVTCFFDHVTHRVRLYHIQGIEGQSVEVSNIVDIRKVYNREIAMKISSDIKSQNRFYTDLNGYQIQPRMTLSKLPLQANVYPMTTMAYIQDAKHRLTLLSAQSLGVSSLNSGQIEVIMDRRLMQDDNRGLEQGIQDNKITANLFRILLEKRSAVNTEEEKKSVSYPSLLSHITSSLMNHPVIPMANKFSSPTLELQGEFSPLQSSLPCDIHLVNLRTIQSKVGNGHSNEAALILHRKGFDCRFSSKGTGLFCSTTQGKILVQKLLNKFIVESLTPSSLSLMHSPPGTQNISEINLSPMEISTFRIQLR
Put plainly: Inhibition of human golgi alpha mannosidase 2.

For a further experiment, the system named is Canavalia ensiformis. Put plainly: Inhibition of jack bean alpha-mannosidase assessed as p-nitrophenylglycoside substrate hydrolysis at 1 mM.
The next experiment deals with Prunus dulcis. The experiment can be described thus: Inhibition of almond alpha-mannosidase assessed as p-nitrophenylglycoside substrate hydrolysis at 1 mM.

One may read the Ki as the equilibrium dissociation constant of an inhibitor or competing ligand from its target. In general, inhibition refers to the relative decrease from the control value, in per cent. With `O[C@H]1[C@@H](O)CN[C@@H]1CN[C@@H](COCOc1ccc(Br)cc1)c1ccccc1`, the Ki in experiment [1] stood at 0.31 µM; on Alpha-mannosidase 2, 15.5 µM. Moreover, in the experiment on Canavalia ensiformis, the inhibition amounted to 92%.

Consider `CC(NC[C@H]1NC[C@H](O)[C@@H]1O)C(O)(c1ccccc1)c1ccccc1` (stereo partly specified), for which the inhibition entry with Prunus dulcis and in the experiment on Canavalia ensiformis was “inactive” in each case. The figures for the Ki (in experiment [1]; at Alpha-mannosidase 2) were 27.1 µM and 80.8 µM, respectively.

`OC(O)C[C@H]1NC[C@H](O)[C@@H]1O`: the values for the inhibition constant (Ki) (in experiment [1]; on Alpha-mannosidase 2) were 287 µM and 438 µM, respectively. For the same compound, the inhibition with Canavalia ensiformis was determined as 81%.

`O[C@H]1[C@@H](O)CN[C@@H]1CN[C@@H](COCOc1ccccc1F)c1ccccc1`: the Ki in experiment [1] came to 0.91 µM; on Alpha-mannosidase 2, 11.3 µM. In the experiment with Canavalia ensiformis, the inhibition is 83%.

Regarding `OC[C@H](NC[C@H]1N[C@H](CO)[C@H](O)[C@@H]1O)c1ccccc1`, the inhibition in the experiment with Prunus dulcis was determined as 96%; with Canavalia ensiformis, 98%. Also, the inhibitory constant (Ki) in experiment [1] amounted to 24.6 µM; at Alpha-mannosidase 2, 11.8 µM.

In the case of `O[C@H]1[C@@H](O)CN[C@@H]1CN[C@@H](c1ccccc1)[C@H](O)c1ccccc1`, the inhibition came out at 50% with Prunus dulcis and 84% in the experiment with Canavalia ensiformis. The Ki is 2.62 µM in experiment [1] and 25.9 µM at Alpha-mannosidase 2.

Take `O[C@H]1[C@@H](O)CN[C@@H]1CN[C@@H](COCOc1ccc(F)cc1)c1ccccc1`: the Ki in experiment [1] was determined as 0.44 µM; on Alpha-mannosidase 2, 6.47 µM. For the same compound, the inhibition in the experiment with Canavalia ensiformis was 92%.

In the case of `O[C@H]1[C@@H](O)CN[C@@H]1CN[C@@H](COCOc1cccc(Br)c1)c1ccccc1`, the Ki is 0.31 µM in experiment [1] and 12.8 µM on Alpha-mannosidase 2. Further, the inhibition in the experiment on Canavalia ensiformis came out at 79%.

Regarding `OC[C@H](NC[C@H]1NC[C@H](O)[C@@H]1O)c1ccccc1`, the inhibition with Prunus dulcis stood at 93%. The Ki is 16.8 µM in experiment [1] and 26.9 µM on Alpha-mannosidase 2.

Turning to `C[C@@H](O)NC[C@H]1NC[C@H](O)[C@@H]1O`, the results for the inhibition with Prunus dulcis and with Canavalia ensiformis were 39% and 75%, respectively. Besides, the figures for the Ki (in experiment [1]; on Alpha-mannosidase 2) were 918 µM and 450 µM, respectively.

As to `O[C@H]1[C@@H](O)CN[C@@H]1CNC1CCCC1`, the figures for the inhibition in the experiment on Prunus dulcis and in the experiment with Canavalia ensiformis were 53% and 60%, respectively. Besides, the Ki amounted to 66.9 µM in experiment [1] and 333 µM at Alpha-mannosidase 2.

For the compound `O[C@H]1[C@@H](O)CN[C@@H]1CN[C@@H](COCc1cccc(F)c1)c1ccccc1`, the Ki in experiment [1] worked out at 0.76 µM; on Alpha-mannosidase 2, 9.14 µM. The inhibition with Canavalia ensiformis was 99%.

Take `CC(=O)N(CNC[C@H]1NC[C@H](O)[C@@H]1O)Cc1ccccc1`: the inhibition entry in the experiment with Prunus dulcis and in the experiment with Canavalia ensiformis was “inactive” each time. The figures for the Ki (in experiment [1]; on Alpha-mannosidase 2) were 44.8 µM and 64.9 µM, respectively.

Regarding `OC[C@@H](NC[C@H]1NC[C@H](O)[C@@H]1O)c1ccccc1`, the inhibition amounted to 55% with Prunus dulcis and 92% in the experiment on Canavalia ensiformis. Also, the Ki was 12 µM in experiment [1] and 29.9 µM on Alpha-mannosidase 2.

Turning to `O[C@H]1[C@@H](O)CN[C@@H]1CNCc1cccs1`, the values for the inhibition with Prunus dulcis and in the experiment on Canavalia ensiformis were 68% and 89%, respectively. For the same compound, the results for the Ki (in experiment [1]; at Alpha-mannosidase 2) were 77.7 µM and 233 µM, respectively.

Turning to `C[C@H](O)NC[C@H]1NC[C@H](O)[C@@H]1O`, the inhibition with Prunus dulcis was found to be 45%; in the experiment with Canavalia ensiformis it was 66%. Moreover, the Ki worked out at 488 µM in experiment [1] and 683 µM at Alpha-mannosidase 2.

Turning to `NC[C@H]1NC[C@H](O)[C@@H]1O`, the inhibition with Prunus dulcis amounted to 51%; in the experiment on Canavalia ensiformis, 81%. Besides, the Ki in experiment [1] is 1.59 µM; on Alpha-mannosidase 2, 1310 µM.

As to `O[C@H]1[C@@H](O)CN[C@@H]1CNCn1ccnc1`, the results for the inhibition with Prunus dulcis and in the experiment on Canavalia ensiformis were 59% and 55%, respectively. Besides, the inhibitory constant (Ki) in experiment [1] amounted to 326 µM; on Alpha-mannosidase 2, 568 µM.

For `CC(NC[C@H]1NC[C@H](O)[C@@H]1O)c1ccccc1` (stereo partly specified), the figures for the inhibition with Prunus dulcis and with Canavalia ensiformis were 48% and 66%, respectively. Also, the Ki in experiment [1] was determined as 28.1 µM; at Alpha-mannosidase 2, 82.3 µM.

`OC[C@H]1NC[C@H](O)[C@@H]1O` [IMINORIBITOL]: the inhibition is 37% with Prunus dulcis and 54% in the experiment with Canavalia ensiformis. The figures for the Ki (in experiment [1]; on Alpha-mannosidase 2) were 1.26 µM and 1430 µM, respectively.

In the case of `COC[C@H](NC[C@H]1NC[C@H](O)[C@@H]1O)c1ccccc1`, the inhibition worked out at 63% in the experiment with Prunus dulcis and 77% in the experiment on Canavalia ensiformis. In addition, the figures for the Ki (in experiment [1]; on Alpha-mannosidase 2) were 12.1 µM and 36 µM, respectively.

Consider `O[C@H]1[C@@H](O)CN[C@@H]1CNCC1CCN(Cc2ccccc2)CC1`, for which the inhibition in the experiment with Prunus dulcis worked out at 59%; with Canavalia ensiformis it was 55%. In addition, the Ki in experiment [1] came out at 13.1 µM; on Alpha-mannosidase 2, 43.2 µM.

With `O[C@H]1[C@@H](O)CN[C@@H]1CNCc1ccccc1`, the Ki worked out at 35 µM in experiment [1] and 152 µM at Alpha-mannosidase 2. Moreover, the inhibition in the experiment with Canavalia ensiformis is 92%.

For the compound `O[C@H]1[C@@H](O)CN[C@@H]1CN[C@@H](COCc1ccccc1)c1ccccc1`, the values for the inhibition in the experiment with Prunus dulcis and in the experiment on Canavalia ensiformis were 75% and 92%, respectively. Besides, the Ki in experiment [1] turned out to be 0.23 µM; on Alpha-mannosidase 2, 68.3 µM.

As to `O[C@H]1[C@@H](O)CN[C@@H]1CNCc1ccco1`, the inhibition came out at 29% with Prunus dulcis and 49% in the experiment on Canavalia ensiformis. Moreover, the results for the Ki (in experiment [1]; on Alpha-mannosidase 2) were 136 µM and 292 µM, respectively.

On to `O=C(NC[C@H](NC[C@H]1NC[C@H](O)[C@@H]1O)c1ccccc1)c1ccccc1Br`, for which the inhibitory constant (Ki) worked out at 0.16 µM in experiment [1] and 4.35 µM at Alpha-mannosidase 2. Further, the inhibition in the experiment with Canavalia ensiformis turned out to be 89%.

For the compound `O[C@H]1[C@@H](O)CN[C@@H]1CCNc1ccccc1`, the inhibition entry with Prunus dulcis is “inactive”. Further, the results for the Ki (in experiment [1]; at Alpha-mannosidase 2) were 74.3 µM and 123 µM, respectively. In addition, the inhibition in the experiment with Canavalia ensiformis was determined as 33%.

`O[C@H]1[C@@H](O)CN[C@@H]1CN[C@H](c1ccccc1)[C@@H](O)c1ccccc1`: the inhibition with Prunus dulcis turned out to be 55%; in the experiment on Canavalia ensiformis, 88%. Besides, the Ki was found to be 0.79 µM in experiment [1] and 7.77 µM on Alpha-mannosidase 2.

Consider `OCC(O)[C@H]1NC[C@H](O)[C@@H]1O` (stereo partly specified), for which the inhibition result in the experiment with Prunus dulcis and in the experiment on Canavalia ensiformis was “inactive” throughout. The Ki in experiment [1] amounted to 169 µM; on Alpha-mannosidase 2 it was 229 µM.

Regarding `O[C@@H]1CNC[C@@H]1O`, the results for the inhibition in the experiment with Prunus dulcis and in the experiment on Canavalia ensiformis were 40% and 70%, respectively. Also, the Ki in experiment [1] came out at 3.24 µM; on Alpha-mannosidase 2, 531 µM.

(Values after ChEMBL document CHEMBL2203079, “Virtual screening and QSAR study of some pyrrolidine derivatives as α-mannosidase inhibitors for binding feature analysis” (Bioorg Med Chem, 2012).)
